Reference: US10206399B2, “Herbicidal composition comprising uracil compound as active ingredient” (Dongbu Farm Hannong Co., Ltd., priority 2012, dated 2019)
Like-named read-outs stand apart in the source and are kept apart here.

Experiments:
Abutilon theophrasti = details: for plant mortality, measured value: Abutilon theophrasti; for Abutilon theophrasti mortality, measured value: 20 days after treatment
Source text: (§1) X is % damage by uracil compound (a) of formula 1 at the rate of application of p kg/ha; Y is % damage by conventional herbicidal compound (b) at the rate of application of q kg/ha; and E is the expected damage caused by compounds (a) and (b) at a rate of application of p and q kg/ha.
(§2) The expected activity for a given combination of two herbicides can be calculated using equation 1 above.

Digitaria sanguinalis = details: for plant mortality, measured value: Digitaria sanguinalis; for Digitaria sanguinalis mortality, measured value: 20 days after treatment
Source text: as §1, §2

Xanthium spinosum = details: for plant mortality, measured value: Xanthium spinosum; for Xanthium spinosum mortality, measured value: 20 days after treatment
Source text: as §1, §2

Aeschynomene indica = details: for plant mortality, measured value: Aeschynomene indica; for Aeschynomene indica mortality, measured value: 20 days after treatment
Source text: as §1, §2

Echinochloa crus = details: for plant mortality, measured value: Echinochloa crus; for Echinochloa crus mortality, measured value: 20 days after treatment
Source text: as §1, §2

Structure (SMILES): O=C(O)COc1ccc(Cl)cc1Cl [2,4-D]
- Data (measured value) Abutilon theophrasti (Abutilon theophrasti; 100 g/ha): 7
- plant mortality, measured value (Abutilon theophrasti; 100 g/ha): 7
- plant mortality, measured value (Abutilon theophrasti; 200 g/ha): 21
- plant mortality, measured value (Abutilon theophrasti; 400 g/ha): 47
- Data (measured value) Digitaria sanguinalis (Digitaria sanguinalis; 100 g/ha): 0
- plant mortality, measured value (Digitaria sanguinalis; 100 g/ha): 0
- plant mortality, measured value (Digitaria sanguinalis; 200 g/ha): 0
- plant mortality, measured value (Digitaria sanguinalis; 400 g/ha): 0
- Data (measured value) Xanthium spinosum (Xanthium spinosum; 100 g/ha): 10
- plant mortality, measured value (Xanthium spinosum; 100 g/ha): 10
- plant mortality, measured value (Xanthium spinosum; 200 g/ha): 22
- plant mortality, measured value (Xanthium spinosum; 400 g/ha): 50
- Data (measured value) Aeschynomene indica (Aeschynomene indica; 100 g/ha): 7
- plant mortality, measured value (Aeschynomene indica; 100 g/ha): 7
- plant mortality, measured value (Aeschynomene indica; 200 g/ha): 24
- plant mortality, measured value (Aeschynomene indica; 400 g/ha): 51
- Data (measured value) Echinochloa crus (Echinochloa crus; 100 g/ha): 0
- plant mortality, measured value (Echinochloa crus; 100 g/ha): 0
- plant mortality, measured value (Echinochloa crus; 200 g/ha): 0
- plant mortality, measured value (Echinochloa crus; 400 g/ha): 0

Structure (SMILES): C=CCOC(=O)C(C)(C)OC(=O)c1cc(-n2c(=O)cc(C(F)(F)F)n(C)c2=O)ccc1Cl [(Butafenacil]
- plant mortality, measured value (Abutilon theophrasti; 16 g/ha): 51
- plant mortality, measured value (Digitaria sanguinalis; 16 g/ha): 5
- plant mortality, measured value (Xanthium spinosum; 16 g/ha): 54
- plant mortality, measured value (Aeschynomene indica; 16 g/ha): 67
- plant mortality, measured value (Echinochloa crus; 16 g/ha): 5

Structure (SMILES): C[C@@H](Oc1ccc(Oc2ncc(Cl)cc2F)cc1)C(=O)O [Clodinafop, reference compound]
- Abutilon theophrasti mortality, measured value (Abutilon theophrasti; 15 g/ha): 0%
- Abutilon theophrasti mortality, measured value (Abutilon theophrasti; 30 g/ha): 0%
- Digitaria sanguinalis mortality, measured value (Digitaria sanguinalis; 15 g/ha): 21%
- Digitaria sanguinalis mortality, measured value (Digitaria sanguinalis; 30 g/ha): 50%
- Xanthium spinosum mortality, measured value (Xanthium spinosum; 15 g/ha): 0%
- Xanthium spinosum mortality, measured value (Xanthium spinosum; 30 g/ha): 0%
- Aeschynomene indica mortality, measured value (Aeschynomene indica; 15 g/ha): 0%
- Aeschynomene indica mortality, measured value (Aeschynomene indica; 30 g/ha): 0%
- Echinochloa crus mortality, measured value (Echinochloa crus; 15 g/ha): 25%
- Echinochloa crus mortality, measured value (Echinochloa crus; 30 g/ha): 53%

Structure (SMILES): Cc1cc(Cl)ccc1OCC(=O)O [MCPA]
- Data (measured value) Abutilon theophrasti (Abutilon theophrasti; 75 g/ha): 11
- Data (measured value) Abutilon theophrasti (Abutilon theophrasti; 150 g/ha): 32
- Data (measured value) Abutilon theophrasti (Abutilon theophrasti; 300 g/ha): 64
- Data (measured value) Digitaria sanguinalis (Digitaria sanguinalis; 75 g/ha): 0
- Data (measured value) Digitaria sanguinalis (Digitaria sanguinalis; 150 g/ha): 0
- Data (measured value) Digitaria sanguinalis (Digitaria sanguinalis; 300 g/ha): 0
- Data (measured value) Xanthium spinosum (Xanthium spinosum; 75 g/ha): 8
- Data (measured value) Xanthium spinosum (Xanthium spinosum; 150 g/ha): 25
- Data (measured value) Xanthium spinosum (Xanthium spinosum; 300 g/ha): 59
- Data (measured value) Aeschynomene indica (Aeschynomene indica; 75 g/ha): 11
- Data (measured value) Aeschynomene indica (Aeschynomene indica; 150 g/ha): 24
- Data (measured value) Aeschynomene indica (Aeschynomene indica; 300 g/ha): 58
- Data (measured value) Echinochloa crus (Echinochloa crus; 75 g/ha): 0
- Data (measured value) Echinochloa crus (Echinochloa crus; 150 g/ha): 0
- Data (measured value) Echinochloa crus (Echinochloa crus; 300 g/ha): 0

Structure (SMILES): Cc1cc(Cl)ccc1OCCCC(=O)O [MCPB]
- plant mortality, measured value (Abutilon theophrasti; 75 g/ha): 11
- plant mortality, measured value (Abutilon theophrasti; 150 g/ha): 22
- plant mortality, measured value (Abutilon theophrasti; 300 g/ha): 52
- plant mortality, measured value (Digitaria sanguinalis; 75 g/ha): 12
- plant mortality, measured value (Digitaria sanguinalis; 150 g/ha): 25
- plant mortality, measured value (Digitaria sanguinalis; 300 g/ha): 56
- plant mortality, measured value (Xanthium spinosum; 75 g/ha): 12
- plant mortality, measured value (Xanthium spinosum; 150 g/ha): 27
- plant mortality, measured value (Xanthium spinosum; 300 g/ha): 58
- plant mortality, measured value (Aeschynomene indica; 75 g/ha): 13
- plant mortality, measured value (Aeschynomene indica; 150 g/ha): 32
- plant mortality, measured value (Aeschynomene indica; 300 g/ha): 64
- plant mortality, measured value (Echinochloa crus; 75 g/ha): 9
- plant mortality, measured value (Echinochloa crus; 150 g/ha): 27
- plant mortality, measured value (Echinochloa crus; 300 g/ha): 57
